From patent US10232043B2, “Photoactivated molecules for light-induced modulation of the activity of electrically excitable cells and methods of using the same” (UNIVERSITY OF SOUTHERN CALIFORNIA, priority 2015, dated 2019)
Entries after “also recorded” stand apart in the source; their conditions may differ.

How the values were obtained:
HEK293T cells = experiment: Effect of PF6:Cl counter ion ratio of Rubpy-C17 on HEK293T cells; format: cell-based; settings: for membrane incorporation: 10 minutes; for Comments (compound stability): degradation seen after two months
Experimental: In some embodiments, the 20 mg of Rubpy-C17 is stored in −20° C. with desiccant in the dark. […] 253 μl of DMSO is then added into the original bottle containing Rubpy-C17 to make 100 mM stock solution. In some embodiments, the stock solution is aliquot and stored in −20° C. with desiccant in the dark.
In some examples, on the day before or on, the same day of the experiment, the following 2.5 mM external solution is prepared using the following steps. The external solution is warmed up to 37° C. For […] of the external solution, 0.176 grams of absorbic acid was added. Another 240 μL 5M NaOH was added to adjust the pH to between about 7.2-7.4. The absorbic solution can then be filtered through a 0.2 μm filter. The solution is then stored in the dark in 4° C. In some examples, the solution must be used within one week.
The 100 mM of Rubpy solution is first thawed from −20° C. 100 mM Rubpy is then diluted to 10 mM Rubpy: 2 μL 100 mM Rubpy+18 μL DMSO. In some examples, this is vortexted to mix and then centrifuged down with a small bench-top. The culture, medium is aspirated and the cells are rinsed with external solution several times. The external solution can then be aspirated. In some examples, enough of the external solution is left on the cells to prevent it from drying. 500 μL of external solution with 2.5 mM of ascorbic acid can then be added.
In some examples, 1 μL of 10 mM of Rubpy to […] of external solution with 2.5 mM ascorbic acid and mixed well. This should produce a final concentration of 10 μM of Rubpy with 0.1% DMSO. This mixed solution is then added to the above referenced cells and incubated for 10 minutes.
The solution can then be aspirated from the plate and rinsed with regular external solution several times. 2 mL of external solution is added to 2.5 mM ascorbic acid for recording. For each plate, a baseline control is taken by recording the first cell before performing any light-stimulating protocol. The light-stimulus can include 10-40 s in duration and bandpassed at 455-495 nm (blue light).
As discussed above, the mixture a 10 μM of RubpyC17 solution was placed in 10 HEK293T cells.

HEK cells = experiment: Membrane incorporation of Rubpy-C17 analogues; format: cell-based; settings: FIGS. 6A-6C, 7A-7B
From the text: In some examples, RubpyC17 can be changed to provide a non-toxic, faster, and highly reversible system that imparts light sensitivity in multiple biological systems. In some embodiments, changing of bipyridine substituents (as shown in as illustrated in FIG. 3) can result in a Ru^3+/2+ reduction potential dynamic range of several hundred millivolts. […] In some examples, the carboxylic acid substituents probe the mechanistic role of charge in the photovoltaic nanoswitch system in addition to the role of the reduction potential. FIGS. 5A-5D illustrates an embodiment of various substituents in place of RubpyC17 in HEK cells. For example, FIG. 5A illustrates TMbpyRubpyC17(PF6) substituted for RubpyC17; FIG. 5B illustrates TMbpyRubpyC17(Cl) substituted for RubpyC17; FIG. 5C illustrates COOHbpyRubpyC17(Na) substituted for RubpyC17; and FIG. 5C illustrates COOHbpyRubpyC17(tBu4N+) substituted for RubpyC17.
In some examples, the RubpyC17 molecule can be configured for non-specific targeting and optimized membrane incorporation of photoactive molecular artificial retinas (“MARs”).
In some embodiments, membrane incorporation can be an important characteristic of the current system. In some embodiments, changing the counter ion identity of Rubpy-C17 can help to change membrane incorporation properties. […] FIG. 7C illustrates the effect that a treatment of 1 μM of Rubpy-Oleic Acid has on HEK cells while FIG. 7D illustrates the effect that a treatment of 10 μM of Rubpy-Linoleic Acid has on HEK cells.

[1] = Time-resolved luminescence and electron transfer of D-B-A complex; format: physicochemical; settings: degassed dichloromethane, excited at 355 nm, monitored at 560 nm
Experimental: Time-resolved emission spectroscopy was used to characterize the MLCT excited state of the D-B-A complex (see FIGS. 24A and 24B). Luminescence decay kinetics were recorded in degassed dichloromethane. The D-B-A complex was excited at 355 nm with an 8-ns laser pulse and luminescence was monitored at 560 nm. […] For comparison, the MLCT lifetime of the reference complex, [Re(CO)3(bpy)(py)]+, determined under identical experimental conditions, is 550 ns.
Self-association often leads to enhanced quenching, due to the formation of aggregates with short intermolecular donor-acceptor distances.
While the rate of intramolecular electron transfer is concentration independent, intermolecular quenching processes vary predictably with concentration. As such, it is possible to separate the two quenching mechanisms and obtain rate constants for each. Time-resolved luminescence measurements at a series of D-B-A concentrations allow a second order intermolecular quenching rate to be determined. As the concentration was increased, shorter lifetimes were recorded in both dichloromethane and acetonitrile. […]
Intramolecular electron transfer may also proceed through a through-space coupling mechanism. […] If β values in this range are used, the through-solvent intramolecular electron transfer rate is predicted to fall between 10^4 and 10^6 s^−1, which is competitive with calculated through-bond tunneling rates.

chromaffin cells = experiment: Cell-attached patch test for membrane perforation; format: cell-based, mouse; settings: in patch pipette, RubpyC17 18 μM, 10 min, amphotericin B within 5 min
From the text: FIGS. 21A-21H depict data from various experiments related to characteristics of RubpyC17-loaded cells. […] Inset images shown to the right of trace confirmed proper integration of RubpyC17 in patched cells. FIGS. 21C-21E show the light-induced action potential firing in chromaffin cells was not due to biophysical changes in voltage-gated ion channels as there were no significant changes in current-voltage relationships (21C-21D) nor in steady-state activation curve (21E) in RubpyC17-loaded chromaffin cells before (open circle) or during (open circle) light illumination. […] Peak inward currents from each stimulation jump were plotted against corresponding stimulating voltages (n=6). […] Data from representative cell is shown (n=5). […] Currents resulting from capacitor-like behavior of chromaffin cell membranes during hyperpolarizing jumps to −85 mV from a resting membrane potential of −80 mV were recorded 5 min following giga-seal formation for amphoterecin B (bottom trace) or 10 min following giga-seal formation for RubpyC17 (top trace).
Finally, to test whether illumination of RubpyC17 incorporated in cell membranes causes nonspecific membrane poration or other damage, 18 μM RubpyC17 was loaded inside a patch pipette and attached to a cell (gigaseal formation) in the cell-attached configuration. This is the same configuration used routinely for perforated-patch recording. […]

Nav1.6 = Nav1.6 (Homo sapiens, UniProt Q9UQD0); settings: extracellular loop S1-S2 and S3-S4 in domain II; cited from earlier work
Sequence of Nav1.6 (Q9UQD0 whole entry, the tested form may be a part): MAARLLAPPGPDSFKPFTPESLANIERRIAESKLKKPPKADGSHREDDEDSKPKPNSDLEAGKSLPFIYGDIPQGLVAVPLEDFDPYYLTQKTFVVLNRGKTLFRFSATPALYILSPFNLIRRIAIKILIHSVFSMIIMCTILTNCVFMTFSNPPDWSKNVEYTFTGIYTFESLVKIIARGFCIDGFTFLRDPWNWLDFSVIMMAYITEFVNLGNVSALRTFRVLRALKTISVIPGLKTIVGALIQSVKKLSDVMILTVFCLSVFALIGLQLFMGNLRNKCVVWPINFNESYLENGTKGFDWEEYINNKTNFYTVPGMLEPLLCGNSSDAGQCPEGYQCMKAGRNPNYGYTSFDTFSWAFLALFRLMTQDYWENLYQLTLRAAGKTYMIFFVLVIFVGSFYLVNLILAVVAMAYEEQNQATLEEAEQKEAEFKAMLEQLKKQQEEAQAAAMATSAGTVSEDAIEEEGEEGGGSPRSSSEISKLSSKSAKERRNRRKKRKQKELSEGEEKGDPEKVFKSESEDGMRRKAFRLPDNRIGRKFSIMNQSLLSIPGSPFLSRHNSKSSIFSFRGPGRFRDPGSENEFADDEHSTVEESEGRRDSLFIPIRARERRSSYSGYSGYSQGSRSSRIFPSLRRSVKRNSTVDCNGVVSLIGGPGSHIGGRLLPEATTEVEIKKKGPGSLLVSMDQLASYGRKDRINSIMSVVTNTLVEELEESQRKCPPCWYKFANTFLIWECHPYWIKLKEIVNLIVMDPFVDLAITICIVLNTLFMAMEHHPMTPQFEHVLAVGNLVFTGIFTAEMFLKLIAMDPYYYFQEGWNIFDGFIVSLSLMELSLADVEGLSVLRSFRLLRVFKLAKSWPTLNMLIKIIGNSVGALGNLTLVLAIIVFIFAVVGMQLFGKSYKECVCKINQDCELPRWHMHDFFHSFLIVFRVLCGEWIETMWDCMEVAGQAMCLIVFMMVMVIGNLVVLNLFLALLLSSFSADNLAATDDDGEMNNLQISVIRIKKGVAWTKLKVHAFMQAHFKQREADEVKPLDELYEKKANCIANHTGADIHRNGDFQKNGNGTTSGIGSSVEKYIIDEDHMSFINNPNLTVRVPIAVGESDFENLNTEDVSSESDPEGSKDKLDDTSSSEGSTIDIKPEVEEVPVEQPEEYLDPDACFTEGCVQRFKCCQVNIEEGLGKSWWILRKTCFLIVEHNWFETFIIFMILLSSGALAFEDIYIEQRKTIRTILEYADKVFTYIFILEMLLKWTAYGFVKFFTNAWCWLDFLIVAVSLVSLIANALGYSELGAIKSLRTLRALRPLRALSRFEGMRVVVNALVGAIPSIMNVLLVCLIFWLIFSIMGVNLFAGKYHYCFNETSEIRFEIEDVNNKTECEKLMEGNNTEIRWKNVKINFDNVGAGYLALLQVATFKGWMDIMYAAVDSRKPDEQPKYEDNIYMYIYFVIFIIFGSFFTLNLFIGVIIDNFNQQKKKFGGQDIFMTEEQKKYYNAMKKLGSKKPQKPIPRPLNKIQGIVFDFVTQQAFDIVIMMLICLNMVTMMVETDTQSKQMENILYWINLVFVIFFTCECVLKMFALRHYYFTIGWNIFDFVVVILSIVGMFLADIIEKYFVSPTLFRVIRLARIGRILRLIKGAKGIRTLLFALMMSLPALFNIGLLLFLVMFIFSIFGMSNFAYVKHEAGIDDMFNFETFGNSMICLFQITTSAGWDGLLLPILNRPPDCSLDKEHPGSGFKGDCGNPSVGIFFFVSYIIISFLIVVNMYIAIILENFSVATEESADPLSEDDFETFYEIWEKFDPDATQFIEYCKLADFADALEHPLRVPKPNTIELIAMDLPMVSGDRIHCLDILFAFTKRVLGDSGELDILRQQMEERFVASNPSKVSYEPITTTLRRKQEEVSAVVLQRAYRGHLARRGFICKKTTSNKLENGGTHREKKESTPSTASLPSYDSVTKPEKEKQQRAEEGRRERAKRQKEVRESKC

With `CCCCCCCCCCCCCCCCCc1ccnc(-c2cc(C)ccn2)c1.[Cl-].[Cl-].[Ru+2].c1ccc(-c2ccccn2)nc1.c1ccc(-c2ccccn2)nc1` [PF6:Cl 0:1] the “Cell Death” value (HEK293T cells; 10 μM, HEK293T cells) was “cell death was observed”, the “membrane incorporation” value (HEK293T cells; 10 μM, HEK293T cells) was “even incorporation” and the “membrane incorporation” value (HEK293T cells; 10 μM, HEK293T cells, listed as Rubpy-C17 with only CL Counter ions) was “good membrane incorporation was initially observed”. For the same compound, the “Comments (compound stability)” value (HEK293T cells) was “subsequent degradation was observed after two months; also recorded: Unstable,”, the “Comments (compound stability)” value (HEK293T cells; listed as Rubpy-C17 with only CL Counter ions) was “compound degradation was seen subsequently after two months” and the membrane incorporation (HEK cells) was “exceptional membrane incorporation”.

With `CCCCCCCC/C=C\CCCCCCCC(=O)Nc1cc2cccnc2c2ncccc12.[Ru+2].c1ccc(-c2ccccn2)nc1.c1ccc(-c2ccccn2)nc1` [Ruphen-C18:1] the membrane incorporation (HEK cells) was “exceptional membrane incorporation; also recorded: excellent membrane incorporation”.

With `CCCCC/C=C\C/C=C\CCCCCCCC(=O)Nc1cc2cccnc2c2ncccc12.[Ru+2].c1ccc(-c2ccccn2)nc1.c1ccc(-c2ccccn2)nc1` [Ruphen-C18:2] the membrane incorporation (HEK cells) was “excellent membrane incorporation”.

With `[C-]#[O+].[C-]#[O+].[C-]#[O+].[Re+].c1ccc(-c2ccccn2)nc1.c1ccncc1` [[Re(CO)3(bpy)(py)]+] the “luminescence (MLCT) lifetime” value [1] was 550 ns.

In the case of `C[C@@H]1[C@H](O)[C@@H](C)/C=C/C=C/C=C/C=C/C=C/C=C/C=C/[C@H](O[C@@H]2O[C@H](C)[C@@H](O)[C@H](N)[C@@H]2O)C[C@@H]2O[C@](O)(C[C@@H](O)C[C@@H](O)[C@H](O)CC[C@@H](O)C[C@@H](O)CC(=O)O[C@H]1C)C[C@H](O)[C@H]2C(=O)O` [amphotericin B, reference compound], the “capacitive charging transient (membrane perforation)” value (chromaffin cells) is reported as “sizable capacitive charging transient”.

In the case of `CCCCCCCCCCCCCCCCCc1ccnc(-c2cc(C)ccn2)c1.Cc1cnc(-c2cc(C)c(C)cn2)cc1C.Cc1cnc(-c2cc(C)c(C)cn2)cc1C.[Ru+2]` [tetramethyl-substituted bpy Rubpy-C17], the membrane incorporation (HEK cells) is reported as “does not evenly incorporate”.

In the case of CssII, the binding affinity (Nav1.6) is given as “nanomolar affinity”.
